# Test system: MCH receptors
# Assay: MCH receptor activity class (method not given)
# Settings: MCH receptor activity class 1-3 (percent of control at 10^-7 M or IC50)
row,SMILES,class
1,COc1ccc(C)cc1NC(=O)NC[C@H]1CC[C@@H](Nc2nccc(N(C)C)n2)CC1 [compound 2446],2 (Class 2: The value of percent of control at 10^−7 M was from 40% to 60% or the value of IC′50 was from 50 nM to 200 nM.)
2,"CN(C)c1cc(N[C@H]2CC[C@@H](NC(=S)Nc3c(F)cc(Br)cc3Br)CC2)nc2ccccc12 [compound 2300, N-(2,4-dibromo-6-fluorophenyl)-N′-(cis-4-{[4-(dimethylamino)quinolin-2-yl]amino}cyclohexyl)thiourea]",2 (Class 2: The value of percent of control at 10^−7 M was from 40% to 60% or the value of IC′50 was from 50 nM to 200 nM.)
3,Cc1cccc(NC(=S)N[C@H]2CC[C@@H](Nc3nccc(N(C)C)n3)CC2)c1C [compound 2344],3 (Class 3 The value of percent of control at 10^−7 M was more than 60% or the value of IC50 was more than 200 nM.)
4,CN(C)c1cc(N[C@H]2CC[C@@H](CNC(=O)Nc3ccccc3Cl)CC2)nc2ccccc12 [compound 2359],3 (Class 3 The value of percent of control at 10^−7 M was more than 60% or the value of IC50 was more than 200 nM.)

# Same assay, conditions: MCH receptor; class by percent of control at 10^-7 M or IC50
row,SMILES,class
1,CN(C)c1cc(N[C@H]2CC[C@@H](NC(=O)CSc3ccccc3)CC2)nc2ccccc12 [compound 63],3 (Class 3 The value of percent of control at 10^−7 M was more than 60% or the value of IC50 was more than 200 nM.)
2,CSc1ncccc1C(=O)NC[C@H]1CC[C@@H](Nc2cc(N(C)C)c3ccccc3n2)CC1 [compound 169],3 (Class 3 The value of percent of control at 10^−7 M was more than 60% or the value of IC50 was more than 200 nM.)
3,"CN(C)c1cc(N[C@H]2CC[C@@H](NC(=O)c3csc(-c4cccs4)n3)CC2)nc2ccccc12 [compound 146, N-(cis-4-{[4-(dimethylamino)quinolin-2-yl]amino}cyclohexyl)-2-(2-thienyl)-1,3-thiazole-4-carboxamide]",1 (Class 1: The value of percent of control at 10^−7 M was less than 40% or the value of IC50 was less than 50 nM.)
4,CN(C)c1cc(N[C@H]2CC[C@@H](CNC(=O)c3ccc(C#N)cc3)CC2)nc2ccccc12 [compound 204],3 (Class 3 The value of percent of control at 10^−7 M was more than 60% or the value of IC50 was more than 200 nM.)
5,CN(C)c1cc(N[C@H]2CC[C@@H](NC(=O)c3ccc(Br)cc3)CC2)nc2ccccc12 [compound 22],2 (Class 2: The value of percent of control at 10^−7 M was from 40% to 60% or the value of IC′50 was from 50 nM to 200 nM.)
6,"CN(C)c1nc(N[C@H]2CC[C@@H](NC(=O)Nc3ccccc3OC(F)(F)F)CC2)nc2c1CCCC2 [compound 1909, N-(cis-4-{[4-(dimethylamino)-5,6,7,8-tetrahydroquinazolin-2-yl]amino}cyclohexyl)-N′-[2-(trifluoromethoxy)phenyl]urea]",2 (Class 2: The value of percent of control at 10^−7 M was from 40% to 60% or the value of IC′50 was from 50 nM to 200 nM.)
7,CN(C)c1nc(N[C@H]2CC[C@@H](NC(=S)Nc3ccc(Br)c(Cl)c3)CC2)nc2c1CCCC2 [compound 2046],3 (Class 3 The value of percent of control at 10^−7 M was more than 60% or the value of IC50 was more than 200 nM.)
8,CN(C)c1cc(N[C@H]2CC[C@@H](NC(=O)c3ccc4ccccc4c3)CC2)nc2ccccc12 [compound 110],3 (Class 3 The value of percent of control at 10^−7 M was more than 60% or the value of IC50 was more than 200 nM.)
9,Cc1ccc(C)c(NC(=S)N[C@H]2CC[C@@H](Nc3nc4c(c(N(C)C)n3)CCCC4)CC2)c1 [compound 2059],3 (Class 3 The value of percent of control at 10^−7 M was more than 60% or the value of IC50 was more than 200 nM.)
10,CN(C)c1cc(N[C@H]2CC[C@@H](CNC(=O)c3ccc(F)cc3Cl)CC2)nc2ccccc12 [compound 188],3 (Class 3 The value of percent of control at 10^−7 M was more than 60% or the value of IC50 was more than 200 nM.)

# Same assay, conditions: activity class 1-3: percent of control at 10^-7 M or IC50
row,SMILES,class
1,Cc1ccccc1NC(=O)N[C@H]1CC[C@@H](Nc2nc3c(c(N(C)C)n2)CCCC3)CC1 [compound 1668],3 (Class 3 The value of percent of control at 10^−7 M was more than 60% or the value of IC50 was more than 200 nM.)
2,CN(C)c1cc(N[C@H]2CC[C@@H](CNC(=O)OCC(Cl)(Cl)Cl)CC2)nc2ccccc12 [compound 1578],3 (Class 3 The value of percent of control at 10^−7 M was more than 60% or the value of IC50 was more than 200 nM.)
3,Cc1ccc(OC(=O)N[C@H]2CC[C@@H](Nc3nccc(N(C)C)n3)CC2)cc1 [compound 1634],3 (Class 3 The value of percent of control at 10^−7 M was more than 60% or the value of IC50 was more than 200 nM.)

# Same assay, conditions: activity class per percent of control at 10^-7 M or IC50
row,SMILES,class
1,CN(C)c1nc(N[C@H]2CC[C@@H](NC(=O)c3cccc(-n4c(-c5ccc(Br)cc5)cc5c4CC(C)(C)CC5=O)c3)CC2)nc2c1CCCC2 [compound 995],3 (Class 3 The value of percent of control at 10^−7 M was more than 60% or the value of IC50 was more than 200 nM.)
2,Cc1cc(C)c(NC(=O)Nc2ccc(OC(F)(F)F)cc2)c(C(=O)N[C@H]2CC[C@@H](Nc3nc4c(c(N(C)C)n3)CCCC4)CC2)c1 [compound 993],1 (Class 1: The value of percent of control at 10^−7 M was less than 40% or the value of IC50 was less than 50 nM.)

# Same assay, conditions: class 1-3 by percent of control at 10^-7 M or IC50
row,SMILES,class
1,Cc1cc(C(=O)N[C@H]2CC[C@@H](Nc3nc4c(c(N(C)C)n3)CCCC4)CC2)nn1C(C)(C)C [compound 526],3 (Class 3 The value of percent of control at 10^−7 M was more than 60% or the value of IC50 was more than 200 nM.)
2,CCCCCC(=O)N[C@H]1CC[C@@H](Nc2nc3c(c(N(C)C)n2)CCCC3)CC1 [compound 476],2 (Class 2: The value of percent of control at 10^−7 M was from 40% to 60% or the value of IC′50 was from 50 nM to 200 nM.)

# Same assay, conditions: class by percent of control at 10^-7 M or IC50
row,SMILES,class
1,CN(C)c1ccnc(N[C@H]2CC[C@@H](NC(=O)c3ccc(C(F)(F)F)cc3)CC2)n1 [compound 335],3 (Class 3 The value of percent of control at 10^−7 M was more than 60% or the value of IC50 was more than 200 nM.)
2,CC(C(=O)N[C@H]1CC[C@@H](Nc2cc(N(C)C)c3ccccc3n2)CC1)c1ccc(C(=O)c2cccs2)cc1 (relative stereo) [compound 744],3 (Class 3 The value of percent of control at 10^−7 M was more than 60% or the value of IC50 was more than 200 nM.)
3,COc1ccccc1/C=C/CN[C@H]1CC[C@@H](Nc2nccc(N(C)C)n2)CC1 [compound 1233],3 (Class 3 The value of percent of control at 10^−7 M was more than 60% or the value of IC50 was more than 200 nM.)
4,CCc1ccccc1CNC[C@H]1CC[C@@H](Nc2nccc(N(C)C)n2)CC1 [compound 1322],3 (Class 3 The value of percent of control at 10^−7 M was more than 60% or the value of IC50 was more than 200 nM.)
5,CN(C)c1nc(N[C@H]2CC[C@@H](CNCc3c[nH]c4ccc(Br)cc34)CC2)nc2c1CCCC2 [compound 1372],1 (Class 1: The value of percent of control at 10^−7 M was less than 40% or the value of IC50 was less than 50 nM.)
6,"CN(C)c1ccnc(N[C@H]2CC[C@@H](NC(=O)c3cn(Cc4ccccc4)c4ccccc34)CC2)n1 [compound 830, 1-benzyl-N-(cis-4-{[4-(dimethylamino)pyrimidin-2-yl]amino}cyclohexyl)-1H-indole-3-carboxamide]",2 (Class 2: The value of percent of control at 10^−7 M was from 40% to 60% or the value of IC′50 was from 50 nM to 200 nM.)
7,"COc1cc(OC)cc(C(=O)N[C@H]2CC[C@@H](Nc3nccc(N(C)C)n3)CC2)c1 [compound 294, N-(cis-4-{[4-(dimethylamino)pyrimidin-2-yl]amino}cyclohexyl)-3,5-dimethoxybenzamide]",1 (Class 1: The value of percent of control at 10^−7 M was less than 40% or the value of IC50 was less than 50 nM.)
8,Cc1cc(=O)oc2c(OCC(=O)N[C@H]3CC[C@@H](Nc4nccc(N(C)C)n4)CC3)cccc12 [compound 363],3 (Class 3 The value of percent of control at 10^−7 M was more than 60% or the value of IC50 was more than 200 nM.)
9,COc1cccc(CN[C@H]2CC[C@@H](Nc3nc4c(c(N(C)C)n3)CCCC4)CC2)c1 [compound 1345],3 (Class 3 The value of percent of control at 10^−7 M was more than 60% or the value of IC50 was more than 200 nM.)
10,CSc1ncccc1C(=O)N[C@H]1CC[C@@H](Nc2nccc(N(C)C)n2)CC1 [compound 260],3 (Class 3 The value of percent of control at 10^−7 M was more than 60% or the value of IC50 was more than 200 nM.)
11,COc1cc(CNC[C@H]2CC[C@@H](Nc3nccc(N(C)C)n3)CC2)cc(F)c1O [compound 1320],3 (Class 3 The value of percent of control at 10^−7 M was more than 60% or the value of IC50 was more than 200 nM.)
12,Cc1cccc(C)c1NC(=S)N[C@H]1CC[C@@H](Nc2nccc(N(C)C)n2)CC1 [compound 2261],3 (Class 3 The value of percent of control at 10^−7 M was more than 60% or the value of IC50 was more than 200 nM.)
13,CN(C)c1cc(N[C@H]2CC[C@@H](CNC(=O)Cc3ccc(F)cc3Cl)CC2)nc2ccccc12 [compound 790],3 (Class 3 The value of percent of control at 10^−7 M was more than 60% or the value of IC50 was more than 200 nM.)
14,CN(C)c1nc(N[C@H]2CC[C@@H](CNC(=O)Cc3cccc4ccccc34)CC2)nc2c1CCCC2 [compound 651],3 (Class 3 The value of percent of control at 10^−7 M was more than 60% or the value of IC50 was more than 200 nM.)
15,CN(C)c1nc(N[C@H]2CC[C@@H](CNC(=O)c3cc(C(F)(F)F)ccc3F)CC2)nc2c1CCCC2 [compound 627],3 (Class 3 The value of percent of control at 10^−7 M was more than 60% or the value of IC50 was more than 200 nM.)
16,CN(C)c1ccnc(N[C@H]2CC[C@@H](CNC(=O)c3ccc(F)cc3)CC2)n1 [compound 382],3 (Class 3 The value of percent of control at 10^−7 M was more than 60% or the value of IC50 was more than 200 nM.)
17,CCCCCC(=O)NC[C@H]1CC[C@@H](Nc2nccc(N(C)C)n2)CC1 [compound 385],3 (Class 3 The value of percent of control at 10^−7 M was more than 60% or the value of IC50 was more than 200 nM.)
18,COc1cc(CC(=O)N[C@H]2CC[C@@H](Nc3cc(N(C)C)c4ccccc4n3)CC2)cc(OC)c1O [compound 700],3 (Class 3 The value of percent of control at 10^−7 M was more than 60% or the value of IC50 was more than 200 nM.)

# From US20050197350A1, “Novel quinoline, tetrahydroquinazoline, and pyrimidine derivatives and methods of treatment related to the use thereof” (TAISHO PHARMACEUTICAL CO., LTD., priority 2003, published 2005)
